Assays:
Format in all cases: cell-based
[1] = target: T1, IKZF2 (Homo sapiens, UniProt Q96SW2+Q9UKS7); assay: Western-blot assay, substrate protein degradation in hPBMCs: IKZF2; conditions: for IKZF2 substrate protein remaining %: compounds at 50 nM and 500 nM, 24 hours; for substrate protein remaining % IKZF2: 24 hours of compound treatment, 50 nM and 500 nM
T1 construct: effects of the compounds of the present disclosure on the expression of target proteins in cells; endogenous in cells; host or cells: human PBMCs (hPBMCs)

[2] = target: T2, CK1α (Homo sapiens, UniProt P48729+Q96SW2); assay: Western-blot assay, substrate protein degradation in hPBMCs: CK1α; conditions: for CK1α substrate protein remaining %: compounds at 50 nM and 500 nM, 24 hours; for substrate protein remaining % CK1α: 24 hours of compound treatment, 50 nM and 500 nM
T2 construct: effects of the compounds of the present disclosure on the expression of target proteins in cells; endogenous in cells; host or cells: human PBMCs (hPBMCs)

[3] = target: T3, WEE1 (Homo sapiens, UniProt P30291+Q96SW2); assay: Western-blot assay, substrate protein degradation in hPBMCs: WEE1; conditions: for WEE1 substrate protein remaining %: compounds at 50 nM and 500 nM, 24 hours; for substrate protein remaining % WEE1: 24 hours of compound treatment, 50 nM and 500 nM
T3 construct: effects of the compounds of the present disclosure on the expression of target proteins in cells; endogenous in cells; host or cells: human PBMCs (hPBMCs)

[4] = target: T4, IKZF3 (Homo sapiens, UniProt Q96SW2+Q9UKT9); assay: Western-blot assay, substrate protein degradation in hPBMCs: IKZF3; conditions: for IKZF3 substrate protein remaining %: compounds at 50 nM and 500 nM, 24 hours; for substrate protein remaining % IKZF3: 24 hours of compound treatment, 50 nM and 500 nM
T4 construct: effects of the compounds of the present disclosure on the expression of target proteins in cells; endogenous in cells; host or cells: human PBMCs (hPBMCs)

[5] = target: T5, GSPT1 (Homo sapiens, UniProt P15170+Q96SW2); assay: Western-blot assay, substrate protein degradation in hPBMCs: GSPT1; conditions: for GSPT1 substrate protein remaining %: compounds at 50 nM and 500 nM, 24 hours; for substrate protein remaining % GSPT1: 24 hours of compound treatment, 50 nM and 500 nM
T5 construct: effects of the compounds of the present disclosure on the expression of target proteins in cells; endogenous in cells; host or cells: human PBMCs (hPBMCs)

[6] = target: T6, IKZF1 (Homo sapiens, UniProt Q13422+Q96SW2); assay: Western-blot assay, substrate protein degradation in hPBMCs: IKZF1; conditions: for IKZF1 substrate protein remaining %: compounds at 50 nM and 500 nM, 24 hours; for substrate protein remaining % IKZF1: 24 hours of compound treatment, 50 nM and 500 nM
T6 construct: effects of the compounds of the present disclosure on the expression of target proteins in cells; endogenous in cells; host or cells: human PBMCs (hPBMCs)
T6 sequence (Q13422 whole entry): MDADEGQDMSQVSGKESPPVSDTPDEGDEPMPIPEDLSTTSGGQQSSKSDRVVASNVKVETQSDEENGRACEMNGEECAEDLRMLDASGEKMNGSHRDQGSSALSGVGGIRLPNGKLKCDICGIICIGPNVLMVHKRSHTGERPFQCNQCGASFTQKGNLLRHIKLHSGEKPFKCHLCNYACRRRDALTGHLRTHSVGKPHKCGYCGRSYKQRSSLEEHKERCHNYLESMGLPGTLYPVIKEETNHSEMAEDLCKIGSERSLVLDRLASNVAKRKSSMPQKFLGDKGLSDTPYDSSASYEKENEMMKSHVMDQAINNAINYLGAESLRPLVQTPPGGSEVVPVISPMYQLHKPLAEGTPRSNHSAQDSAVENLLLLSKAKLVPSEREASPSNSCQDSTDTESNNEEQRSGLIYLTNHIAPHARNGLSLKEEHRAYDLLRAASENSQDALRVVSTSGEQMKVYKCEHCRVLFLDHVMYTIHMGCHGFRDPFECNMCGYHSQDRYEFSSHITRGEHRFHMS
T6 sequence (Q96SW2 whole entry): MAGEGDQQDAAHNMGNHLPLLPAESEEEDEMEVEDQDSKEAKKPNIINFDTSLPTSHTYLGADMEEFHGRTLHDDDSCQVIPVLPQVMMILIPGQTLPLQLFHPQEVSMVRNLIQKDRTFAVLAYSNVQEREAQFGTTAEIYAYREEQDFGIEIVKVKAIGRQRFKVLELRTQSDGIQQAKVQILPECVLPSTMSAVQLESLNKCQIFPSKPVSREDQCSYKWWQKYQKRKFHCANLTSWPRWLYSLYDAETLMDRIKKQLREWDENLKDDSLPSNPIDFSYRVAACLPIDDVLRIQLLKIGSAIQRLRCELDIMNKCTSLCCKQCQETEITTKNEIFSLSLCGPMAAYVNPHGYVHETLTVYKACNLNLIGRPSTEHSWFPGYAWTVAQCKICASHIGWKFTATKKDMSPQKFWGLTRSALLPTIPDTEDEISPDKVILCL
T6 sequence (Q16531 whole entry partner): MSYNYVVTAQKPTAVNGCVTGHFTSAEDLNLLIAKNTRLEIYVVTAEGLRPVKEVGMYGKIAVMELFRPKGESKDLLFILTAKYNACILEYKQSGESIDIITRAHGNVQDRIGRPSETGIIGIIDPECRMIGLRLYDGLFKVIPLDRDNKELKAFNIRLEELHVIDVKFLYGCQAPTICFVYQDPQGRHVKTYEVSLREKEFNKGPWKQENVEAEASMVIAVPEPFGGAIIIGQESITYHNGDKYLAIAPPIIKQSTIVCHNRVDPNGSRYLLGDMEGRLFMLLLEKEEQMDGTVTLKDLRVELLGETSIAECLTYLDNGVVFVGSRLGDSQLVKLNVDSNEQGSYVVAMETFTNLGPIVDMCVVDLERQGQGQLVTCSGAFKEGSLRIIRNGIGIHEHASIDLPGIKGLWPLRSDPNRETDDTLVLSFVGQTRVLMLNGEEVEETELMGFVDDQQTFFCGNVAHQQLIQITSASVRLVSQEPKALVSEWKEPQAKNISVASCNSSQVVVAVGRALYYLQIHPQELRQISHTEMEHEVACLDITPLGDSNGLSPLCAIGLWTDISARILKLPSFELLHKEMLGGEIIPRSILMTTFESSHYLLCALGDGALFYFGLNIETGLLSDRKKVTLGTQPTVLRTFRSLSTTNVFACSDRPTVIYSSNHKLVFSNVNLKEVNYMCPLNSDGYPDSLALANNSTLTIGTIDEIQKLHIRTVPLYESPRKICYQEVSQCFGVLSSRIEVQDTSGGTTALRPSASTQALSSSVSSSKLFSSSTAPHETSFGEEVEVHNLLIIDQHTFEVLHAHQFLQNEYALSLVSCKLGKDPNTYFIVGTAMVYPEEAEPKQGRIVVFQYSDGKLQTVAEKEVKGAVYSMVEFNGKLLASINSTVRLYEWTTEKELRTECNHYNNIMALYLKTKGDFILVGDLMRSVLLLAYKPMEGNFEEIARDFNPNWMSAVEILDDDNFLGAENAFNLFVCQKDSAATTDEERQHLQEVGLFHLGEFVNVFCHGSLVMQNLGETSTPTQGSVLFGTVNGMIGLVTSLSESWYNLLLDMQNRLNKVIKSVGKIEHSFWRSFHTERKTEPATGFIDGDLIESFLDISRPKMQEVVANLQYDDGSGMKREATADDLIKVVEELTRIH

T1 sequence (Q9UKS7 whole entry): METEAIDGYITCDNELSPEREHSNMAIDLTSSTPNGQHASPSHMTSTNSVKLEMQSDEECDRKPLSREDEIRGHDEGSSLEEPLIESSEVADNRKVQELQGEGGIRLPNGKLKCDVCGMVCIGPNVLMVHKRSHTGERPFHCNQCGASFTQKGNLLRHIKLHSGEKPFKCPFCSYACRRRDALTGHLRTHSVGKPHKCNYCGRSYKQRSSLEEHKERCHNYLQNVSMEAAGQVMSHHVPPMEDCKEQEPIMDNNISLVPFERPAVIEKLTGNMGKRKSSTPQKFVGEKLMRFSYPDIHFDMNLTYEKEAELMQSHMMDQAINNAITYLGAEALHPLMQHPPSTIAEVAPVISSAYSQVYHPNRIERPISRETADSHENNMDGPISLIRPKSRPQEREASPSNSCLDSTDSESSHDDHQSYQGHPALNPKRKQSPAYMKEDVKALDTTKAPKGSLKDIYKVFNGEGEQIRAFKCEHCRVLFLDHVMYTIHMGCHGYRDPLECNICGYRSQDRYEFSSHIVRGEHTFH
T1 sequence (Q96SW2 whole entry): as the sequence (Q96SW2 whole entry) above
T1 sequence (Q16531 whole entry partner): as the sequence (Q16531 whole entry partner) above
T5 sequence (P15170 whole entry): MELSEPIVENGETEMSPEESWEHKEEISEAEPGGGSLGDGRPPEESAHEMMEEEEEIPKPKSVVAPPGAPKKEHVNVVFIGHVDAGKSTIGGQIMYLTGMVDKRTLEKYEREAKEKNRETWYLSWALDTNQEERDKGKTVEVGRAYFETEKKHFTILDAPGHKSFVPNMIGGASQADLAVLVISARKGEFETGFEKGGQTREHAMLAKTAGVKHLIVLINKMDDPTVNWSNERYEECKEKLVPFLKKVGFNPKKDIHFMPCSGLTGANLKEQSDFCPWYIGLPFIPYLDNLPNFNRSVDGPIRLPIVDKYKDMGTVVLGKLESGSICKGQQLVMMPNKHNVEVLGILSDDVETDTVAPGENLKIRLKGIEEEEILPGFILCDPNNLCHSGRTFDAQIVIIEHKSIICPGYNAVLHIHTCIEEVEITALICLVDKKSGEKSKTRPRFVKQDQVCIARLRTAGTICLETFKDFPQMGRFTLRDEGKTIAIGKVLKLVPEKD
T5 sequence (Q96SW2 whole entry): as the sequence (Q96SW2 whole entry) above
T5 sequence (Q16531 whole entry partner): as the sequence (Q16531 whole entry partner) above
T2 sequence (P48729 whole entry): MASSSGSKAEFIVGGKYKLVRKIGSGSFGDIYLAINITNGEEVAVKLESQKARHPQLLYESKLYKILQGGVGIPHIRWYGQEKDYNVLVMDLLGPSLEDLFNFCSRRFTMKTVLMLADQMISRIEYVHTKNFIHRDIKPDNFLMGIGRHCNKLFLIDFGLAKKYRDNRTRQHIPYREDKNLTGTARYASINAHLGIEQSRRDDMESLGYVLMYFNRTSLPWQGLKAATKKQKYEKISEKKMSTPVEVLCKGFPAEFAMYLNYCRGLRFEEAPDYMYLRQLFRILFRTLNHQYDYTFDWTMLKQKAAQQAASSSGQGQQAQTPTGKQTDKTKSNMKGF
T2 sequence (Q96SW2 whole entry): as the sequence (Q96SW2 whole entry) above
T2 sequence (Q16531 whole entry partner): as the sequence (Q16531 whole entry partner) above
T3 sequence (P30291 whole entry): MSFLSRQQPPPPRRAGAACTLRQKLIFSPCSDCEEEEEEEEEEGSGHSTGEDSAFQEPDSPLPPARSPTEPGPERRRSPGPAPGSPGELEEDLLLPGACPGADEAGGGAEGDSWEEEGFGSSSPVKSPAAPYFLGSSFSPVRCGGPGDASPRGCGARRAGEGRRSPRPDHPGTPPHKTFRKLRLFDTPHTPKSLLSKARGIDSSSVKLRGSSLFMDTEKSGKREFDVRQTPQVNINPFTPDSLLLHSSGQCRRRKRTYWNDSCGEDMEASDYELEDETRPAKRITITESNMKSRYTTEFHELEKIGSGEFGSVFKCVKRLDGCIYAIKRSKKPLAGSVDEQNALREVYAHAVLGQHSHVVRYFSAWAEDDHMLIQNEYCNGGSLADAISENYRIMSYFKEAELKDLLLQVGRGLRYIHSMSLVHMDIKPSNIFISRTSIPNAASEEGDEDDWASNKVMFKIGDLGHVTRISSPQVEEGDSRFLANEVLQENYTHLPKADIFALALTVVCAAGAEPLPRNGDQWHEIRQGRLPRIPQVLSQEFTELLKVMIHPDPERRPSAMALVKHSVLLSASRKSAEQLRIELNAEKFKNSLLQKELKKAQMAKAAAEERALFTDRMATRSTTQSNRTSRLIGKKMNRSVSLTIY
T3 sequence (Q96SW2 whole entry): as the sequence (Q96SW2 whole entry) above
T3 sequence (Q16531 whole entry partner): as the sequence (Q16531 whole entry partner) above

O=C1CCN(N2Cc3cc(CN4CCN(c5cnccn5)CC4)ccc3C2=O)C(=O)N1 [GT-07160, 1-(1-oxo-5-((4-(pyrazin-2-yl)piperazin-1-yl)methyl)isoindolin-2-yl)dihydropyrimidine-2,4(1H,3H)-dione]
IKZF2 substrate protein remaining % [1]: A ("A" is defined as 0% ≤ substrate protein remaining % ≤ 80%)
CK1α substrate protein remaining % [2]: A ("A" is defined as 0% ≤ substrate protein remaining % ≤ 80%)
WEE1 substrate protein remaining % [3]: B ("B" is defined as 80%< substrate protein remaining %≤ 100%)
IKZF3 substrate protein remaining % [4]: B ("B" is defined as 80%< substrate protein remaining %≤ 100%)
GSPT1 substrate protein remaining % [5]: A ("A" is defined as 0% ≤ substrate protein remaining % ≤ 80%)
IKZF1 substrate protein remaining % [6]: B ("B" is defined as 80%< substrate protein remaining %≤ 100%)

O=C1CCN(N2Cc3cc(CN4CCC(c5cccc6c(F)cccc56)CC4)ccc3C2=O)C(=O)N1 [GT-07589, 1-(5-((4-(5-fluoronaphthalen-1-yl)piperidin-1-yl)methyl)-1-oxoisoindolin-2-yl)dihydropyrimidine-2,4(1H,3H)-dione]
substrate protein remaining % IKZF2 [1]: B (80%< substrate protein remaining %≤ 100%)
substrate protein remaining % CK1α [2]: B (80%< substrate protein remaining %≤ 100%)
substrate protein remaining % WEE1 [3]: B (80%< substrate protein remaining %≤ 100%)
substrate protein remaining % IKZF3 [4]: B (80%< substrate protein remaining %≤ 100%)
substrate protein remaining % GSPT1 [5]: A (0% ≤ substrate protein remaining % ≤ 80%)
substrate protein remaining % IKZF1 [6]: B (80%< substrate protein remaining %≤ 100%)

O=C1CCN(N2Cc3cc(CN4CC5CCC(C4)N5c4cccc(Cl)c4Cl)ccc3C2=O)C(=O)N1 [GT-07429, 1-(5-((8-(2,3-dichlorophenyl)-3,8-diazabicyclo[3.2.1]octan-3-yl)methyl)-1-oxoisoindolin-2-yl)dihydropyrimidine-2,4(1H,3H)-dione]
substrate protein remaining % IKZF2 [1]: B (80%< substrate protein remaining %≤ 100%)
substrate protein remaining % CK1α [2]: B (80%< substrate protein remaining %≤ 100%)
substrate protein remaining % WEE1 [3]: B (80%< substrate protein remaining %≤ 100%)
substrate protein remaining % IKZF3 [4]: B (80%< substrate protein remaining %≤ 100%)
substrate protein remaining % GSPT1 [5]: B (80%< substrate protein remaining %≤ 100%)
substrate protein remaining % IKZF1 [6]: A (0% ≤ substrate protein remaining % ≤ 80%)

O=C1CCN(N2Cc3cc(CN4C[C@@H]5C[C@H]4CN5C(c4ccccc4)c4ccccc4)ccc3C2=O)C(=O)N1 [GT-04938, 1-(5-(((1S,4S)-5-benzhydryl-2,5-diazabicyclo[2.2.1]heptan-2-yl)methyl)-1-oxoisoindolin-2-yl)dihydropyrimidine-2,4(1H,3H)-dione]
IKZF2 substrate protein remaining % [1]: A ("A" is defined as 0% ≤ substrate protein remaining % ≤ 80%)
CK1α substrate protein remaining % [2]: B ("B" is defined as 80%< substrate protein remaining %≤ 100%)
WEE1 substrate protein remaining % [3]: A ("A" is defined as 0% ≤ substrate protein remaining % ≤ 80%)
IKZF3 substrate protein remaining % [4]: B ("B" is defined as 80%< substrate protein remaining %≤ 100%)
GSPT1 substrate protein remaining % [5]: A ("A" is defined as 0% ≤ substrate protein remaining % ≤ 80%)
IKZF1 substrate protein remaining % [6]: B ("B" is defined as 80%< substrate protein remaining %≤ 100%)

O=C1CCN(N2Cc3cc(CN4CCN(c5nsc6ccccc56)CC4)ccc3C2=O)C(=O)N1 [GT-04865, 1-(5-((4-(benzo[d]isothiazol-3-yl)piperazin-1-yl)methyl)-1-oxoisoindolin-2-yl)dihydropyrimidine-2,4(1H,3H)-dione]
IKZF2 substrate protein remaining % [1]: B ("B" is defined as 80%< substrate protein remaining %≤ 100%)
CK1α substrate protein remaining % [2]: B ("B" is defined as 80%< substrate protein remaining %≤ 100%)
WEE1 substrate protein remaining % [3]: B ("B" is defined as 80%< substrate protein remaining %≤ 100%)
IKZF3 substrate protein remaining % [4]: B ("B" is defined as 80%< substrate protein remaining %≤ 100%)
GSPT1 substrate protein remaining % [5]: A ("A" is defined as 0% ≤ substrate protein remaining % ≤ 80%)
IKZF1 substrate protein remaining % [6]: A ("A" is defined as 0% ≤ substrate protein remaining % ≤ 80%)

— patent EP4722207A1, “OXOISOINDOLINYL-SUBSTITUTED TETRAHYDROPYRIMIDINEDIONE DERIVATIVE AND USE THEREOF” (Gluetacs Therapeutics (Shanghai) Co., Ltd., priority 2023, dated 2024)
